Laboratory results as given in patent publication US20070128217A1 (priority 2003, published 2007).

Legend:
[1] = test system: control sera (pooled serum of ten healthy LUMC hospital workers; commercial negative donor pooled serum from the Dutch bloodbank); type: binding, human; design: Binding of Control serum LUMC to linear peptides / Binding of Control serum Blood-bank to linear peptides / Binding of Control serum LUMC to looped peptides / Binding of Control Serum Blood-Bank to Looped peptides / Binding of Control serum LUMC to linear peptides of the protein M of SARS-CoV Urbani / Binding of Control serum Blood-bank to linear peptides of the protein M of SARS-CoV Urbani / Binding of Control serum LUMC to looped peptides of the protein M of SARS-CoV Urbani / Binding of Control Serum Blood-Bank to Looped peptides of the protein M of SARS-CoV Urbani: unit not given here
[2] = test system: rabbit serum obtained by immunizing a rabbit with the SARS-CoV strain Frankfurt 1; type: binding; design: Binding of a rabbit serum to linear peptides / Binding of a rabbit serum to looped peptides / Rabbit serum linear peptides / Rabbit serum looped peptides / Binding of a rabbit serum to linear peptides of protein N of SARS-CoV Urbani (Rabbit serum linear peptides) / Binding of a rabbit serum to looped/cyclic peptides of protein N of SARS-CoV Urbani (Rabbit serum looped peptides): unit not given here
[3] = test system: antibodies in sera from SARS patients (sera 1a, 1b, 2, 6, 37, 62, London, SARS-yellow, SARS-green); type: binding, human; design: Binding of serum 6 to linear peptides of protein X1 of SARS-CoV Urbani / Binding of serum 37 to linear peptides of protein X1 of SARS-CoV Urbani / Binding of serum 6 to looped/cyclic peptide (PEPSCAN-ELISA) / Binding of serum 37 to looped/cyclic peptide (PEPSCAN-ELISA) / Binding of serum 37 to looped/cyclic peptides of protein X1 of SARS-CoV Urbani / Binding of serum 6 to linear peptides of protein X2 / Binding of serum 37 to linear peptides of protein X2 / Binding of serum 37 to looped/cyclic peptides of protein X2 of SARS-CoV Urbani / Binding of serum 6 to linear peptides of protein M of SARS-CoV Urbani / Binding of serum 37 to linear peptides of protein M of SARS-CoV Urbani / Binding of serum 6 to looped/cyclic peptides of protein M of SARS-CoV Urbani / Binding of serum 37 to looped/cyclic peptides of protein M of SARS-CoV Urbani / Binding of serum 6 to linear peptides of protein X3 of SARS-CoV Urbani / Binding of serum 37 to linear peptides of protein X3 of SARS-CoV Urbani / Binding of serum 37 to looped/cyclic peptides of protein X3 of SARS-CoV Urbani / Binding of serum 6 to linear peptides of protein X4 of SARS-CoV Urbani / Binding of serum 37 to linear peptides of protein X4 of SARS-CoV Urbani / Binding of serum 37 to looped/cyclic peptides of protein X4 of SARS-CoV Urbani / Binding of serum 6 to linear peptides of protein X5 of SARS-CoV Urbani / Binding of serum 37 to linear peptides of protein X5 of SARS-CoV Urbani / Binding of serum 37 to looped/cyclic peptides of protein X5 of SARS-CoV Urbani / Binding of serum 6 to linear peptides of protein N of SARS-CoV Urbani / Binding of serum 37 to linear peptides of protein N of SARS-CoV Urbani / Binding of serum 6 to linear peptide (PEPSCAN-ELISA) / Binding of serum 1a to looped/cyclic peptides of protein N of SARS-CoV Urbani / Binding of serum 1b to looped/cyclic peptides of protein N of SARS-CoV Urbani / Binding of serum 2 to looped/cyclic peptides of protein N of SARS-CoV Urbani / Binding of serum 6 to looped/cyclic peptides of protein N of SARS-CoV Urbani / Binding of serum 37 to looped/cyclic peptides of protein N of SARS-CoV Urbani / Binding of serum 62 to looped/cyclic peptides of protein N of SARS-CoV Urbani / Binding of serum London to looped/cyclic peptides of protein N of SARS-CoV Urbani / Binding of serum SARS-green to looped/cyclic peptides of protein N of SARS-CoV Urbani: unit not given here

IILFLTLIVFTSCEL was tested, and the “Binding of Control Serum Blood-Bank to Looped peptides” value [1] was 0.7, the “Binding of Control serum Blood-bank to linear peptides” value [1] was 0.7 and the “Binding of Control serum LUMC to linear peptides” value [1] was 0.9. The “Binding of Control serum LUMC to looped peptides” value [1] was 0.6, the “Rabbit serum linear peptides” value [2] was 0.8 and the “Rabbit serum looped peptides” value [2] was 0.5. For the same sequence, the “Binding of serum 1a to linear peptides of protein X4 of SARS-CoV Urbani” value [3] was 0.8, the “Binding of serum 1a to looped/cyclic peptides of protein X4 of SARS-CoV Urbani” value [3] was 0.7 and the “Binding of serum 1b to linear peptides of protein X4 of SARS-CoV Urbani” value [3] was 0.8. For the same sequence, the “Binding of serum 1b to looped/cyclic peptides of protein X4 of SARS-CoV Urbani” value [3] was 0.1, the “Binding of serum 2 to linear peptides of protein X4 of SARS-CoV Urbani” value [3] was 0.6 and the “Binding of serum 2 to looped/cyclic peptides of protein X4 of SARS-CoV Urbani” value [3] was 0.6. The “Binding of serum 6 to linear peptides of protein X4 of SARS-CoV Urbani” value [3] was 0.5, the “Binding of serum 6 to looped/cyclic peptides of protein X4 of SARS-CoV Urbani” value [3] was 0.5 and the “Binding of serum 37 to linear peptides of protein X4 of SARS-CoV Urbani” value [3] was 0.9. For the same sequence, the “Binding of serum 37 to looped/cyclic peptides of protein X4 of SARS-CoV Urbani” value [3] was 0.7, the “Binding of serum 62 to linear peptides of protein X4 of SARS-CoV Urbani” value [3] was 0.8 and the “Binding of serum 62 to looped/cyclic peptides of protein X4 of SARS-CoV Urbani” value [3] was 0.7. For the same sequence, the “Binding of serum London to linear peptides of protein X4 of SARS-CoV Urbani” value [3] was 0.7, the “Binding of serum London to looped/cyclic peptides of protein X4 of SARS-CoV Urbani” value [3] was 0.2 and the “Binding of serum SARS-green to linear peptides of protein X4 of SARS-CoV Urbani” value [3] was 0.6. For the same sequence, the “Binding of serum SARS-green to looped/cyclic peptides of protein X4 of SARS-CoV Urbani” value [3] was 0.4, the “Binding of serum SARS-yellow to linear peptides of protein X4 of SARS-CoV Urbani” value [3] was 0.7 and the “Binding of serum SARS-yellow to looped/cyclic peptides of protein X4 of SARS-CoV Urbani” value [3] was 0.6.

In the case of LMESELVIGAVIIRG, the “Binding of Control Serum Blood-Bank to Looped peptides of the protein M of SARS-CoV Urbani” value [1] is reported as 0.7, the “Binding of Control serum Blood-bank to linear peptides of the protein M of SARS-CoV Urbani” value [1] is reported as 0.8 and the “Binding of Control serum LUMC to linear peptides of the protein M of SARS-CoV Urbani” value [1] is reported as 0.5. The “Binding of Control serum LUMC to looped peptides of the protein M of SARS-CoV Urbani” value [1] was 0.6, the “Rabbit serum linear peptides” value [2] was 0.4 and the “Rabbit serum looped peptides” value [2] was 0.2. For the same sequence, the “Binding of serum 1a to linear peptides of protein M of SARS-CoV Urbani” value [3] was 0.7, the “Binding of serum 1a to looped/cyclic peptides of protein M of SARS-CoV Urbani” value [3] was 0.6 and the “Binding of serum 1b to linear peptides of protein M of SARS-CoV Urbani” value [3] was 0.5. For the same sequence, the “Binding of serum 1b to looped/cyclic peptides of protein M of SARS-CoV Urbani” value [3] was 0.6, the “Binding of serum 2 to linear peptides of protein M of SARS-CoV Urbani” value [3] was 0.7 and the “Binding of serum 2 to looped/cyclic peptides of protein M of SARS-CoV Urbani” value [3] was 0.5. The “Binding of serum 6 to linear peptides of protein M of SARS-CoV Urbani” value [3] was 0.3, the “Binding of serum 6 to looped/cyclic peptides of protein M of SARS-CoV Urbani” value [3] was 0.4 and the “Binding of serum 37 to linear peptides of protein M of SARS-CoV Urbani” value [3] was 0.9. For the same sequence, the “Binding of serum 37 to looped/cyclic peptides of protein M of SARS-CoV Urbani” value [3] was 0.6, the “Binding of serum 62 to linear peptides of protein M of SARS-CoV Urbani” value [3] was 0.8 and the “Binding of serum 62 to looped/cyclic peptides of protein M of SARS-CoV Urbani” value [3] was 0.6. For the same sequence, the “Binding of serum London to linear peptides of protein M of SARS-CoV Urbani” value [3] was 0.3, the “Binding of serum London to looped/cyclic peptides of protein M of SARS-CoV Urbani” value [3] was 0.2 and the “Binding of serum SARS-green to linear peptides of protein M of SARS-CoV Urbani” value [3] was 0.3. The “Binding of serum SARS-green to looped/cyclic peptides of protein M of SARS-CoV Urbani” value [3] was 0.3, the “Binding of serum SARS-yellow to linear peptides of protein M of SARS-CoV Urbani” value [3] was 0.1 and the “Binding of serum SARS-yellow to looped/cyclic peptides of protein M of SARS-CoV Urbani” value [3] was 0.5.

With KDLPKEITVATSRTL the “Binding of Control Serum Blood-Bank to Looped peptides of the protein M of SARS-CoV Urbani” value [1] was 0.6, the “Binding of Control serum Blood-bank to linear peptides of the protein M of SARS-CoV Urbani” value [1] was 0.7 and the “Binding of Control serum LUMC to linear peptides of the protein M of SARS-CoV Urbani” value [1] was 0.6. The “Binding of Control serum LUMC to looped peptides of the protein M of SARS-CoV Urbani” value [1] was 0.8, the “Rabbit serum linear peptides” value [2] was 0.2 and the “Rabbit serum looped peptides” value [2] was 0.3. For the same sequence, the “Binding of serum 1a to linear peptides of protein M of SARS-CoV Urbani” value [3] was 0.7, the “Binding of serum 1a to looped/cyclic peptides of protein M of SARS-CoV Urbani” value [3] was 0.6 and the “Binding of serum 1b to linear peptides of protein M of SARS-CoV Urbani” value [3] was 0.6. For the same sequence, the “Binding of serum 1b to looped/cyclic peptides of protein M of SARS-CoV Urbani” value [3] was 0.6, the “Binding of serum 2 to linear peptides of protein M of SARS-CoV Urbani” value [3] was 0.6 and the “Binding of serum 2 to looped/cyclic peptides of protein M of SARS-CoV Urbani” value [3] was 0.7. For the same sequence, the “Binding of serum 6 to linear peptides of protein M of SARS-CoV Urbani” value [3] was 0.5, the “Binding of serum 6 to looped/cyclic peptides of protein M of SARS-CoV Urbani” value [3] was 1.1 and the “Binding of serum 37 to linear peptides of protein M of SARS-CoV Urbani” value [3] was 0.5. For the same sequence, the “Binding of serum 37 to looped/cyclic peptides of protein M of SARS-CoV Urbani” value [3] was 0.6, the “Binding of serum 62 to linear peptides of protein M of SARS-CoV Urbani” value [3] was 0.5 and the “Binding of serum 62 to looped/cyclic peptides of protein M of SARS-CoV Urbani” value [3] was 0.6. The “Binding of serum London to linear peptides of protein M of SARS-CoV Urbani” value [3] was 0.3, the “Binding of serum London to looped/cyclic peptides of protein M of SARS-CoV Urbani” value [3] was 1.1 and the “Binding of serum SARS-green to linear peptides of protein M of SARS-CoV Urbani” value [3] was 0.5. For the same sequence, the “Binding of serum SARS-green to looped/cyclic peptides of protein M of SARS-CoV Urbani” value [3] was 0.3, the “Binding of serum SARS-yellow to linear peptides of protein M of SARS-CoV Urbani” value [3] was 0.2 and the “Binding of serum SARS-yellow to looped/cyclic peptides of protein M of SARS-CoV Urbani” value [3] was 0.9.
